SMILES strings stand for the structures.

The target of this assay is human A2A receptor (Homo sapiens (Human), UniProt P29274). The assay can be described thus: competition binding assay using Scintillation Proximity technology. The note with it: membranes from CHO-K1 cells expressing the human A2a receptor; 2.0 nM tritiated compound; Cheng-Prusoff. In a few lines:
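Membranes (1.0 μg) from CHO-K1 cells expressing human A2A were treated with adenosine deaminase, then incubated 1 h at room temperature with compound (3000–0.15 nM) and 2.0 nM tritiated SCH-type ligand on WGA SPA beads in PBS plus 10 mM MgCl2. Nonspecific binding was defined with 1 μM CGS 15943. Ki was derived from EC50 via Cheng-Prusoff.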
(In general: Scintillation proximity formats need no separation of bound from free tracer.)

Sequence of human A2A receptor (P29274 whole entry): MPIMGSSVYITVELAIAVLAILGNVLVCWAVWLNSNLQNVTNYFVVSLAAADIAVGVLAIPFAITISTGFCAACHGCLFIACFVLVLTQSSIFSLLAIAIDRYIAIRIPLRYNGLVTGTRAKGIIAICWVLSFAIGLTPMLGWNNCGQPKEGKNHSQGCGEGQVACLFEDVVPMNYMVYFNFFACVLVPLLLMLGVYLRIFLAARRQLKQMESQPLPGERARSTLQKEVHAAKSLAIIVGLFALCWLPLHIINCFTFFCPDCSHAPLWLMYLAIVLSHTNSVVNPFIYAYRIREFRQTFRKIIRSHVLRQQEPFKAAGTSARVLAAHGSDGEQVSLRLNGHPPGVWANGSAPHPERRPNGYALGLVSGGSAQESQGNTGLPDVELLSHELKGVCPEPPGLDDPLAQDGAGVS

In turn, `Nc1nc2c3c(ccc2c2nc(CN4CC(O)(C(F)(F)F)C4)nn12)OC(F)(F)O3` [Example 113, 11-[(5-amino-2,2-difluoro[1,3]dioxolo [4,5-h][1,2,4]triazolo[1,5-c]quinazolin-8-yl)methyl]-3-(trifluoromethyl) azetidin-3-ol] had a Ki of 2.8 nM.

`Nc1nc2c3c(ccc2c2nc(CCN4CCCC(O)(C(F)(F)F)C4)nn12)OC(F)(F)O3` (single isomer, unassigned) [Example 70, (R or S)-1-(2-(5-amino-2,2-difluoro-[1,3]dioxolo[4,5-h][1,2,4]triazolo[1,5-c]quinazolin-8-yl)ethyl)-3-(trifluoromethyl)piperidin-3-ol]: the Ki came out at 5.2 nM.

`C[C@@H]1CN(c2nsnc2Cl)CCN1CCc1nc2c3ccc4c(c3nc(N)n2n1)OC(F)(F)O4` [Example 46, 8-{2-[(2R)-4-(4-chloro-1,2,5-thiadiazol-3-yl)-2-methylpiperazin-1-yl]ethyl}-2,2-difluoro[1,3]dioxolo[4,5-h][1,2,4]triazolo[1,5-c]quinazolin-5-amine]: the affinity corresponds to a Ki of 1.8 nM. This Ki is about 2.9-fold lower than that of the molecule before.

With `Nc1nc2c3c(ccc2c2nc(CN4Cc5ccc(C(F)(F)F)cc5C4)nn12)OC(F)(F)O3` [Example 123, 2,2-difluoro-8-{[5-(trifluoromethyl)-1,3-dihydro-2H-isoindol-2-yl]methyl} [1,3]dioxolo[4,5-h][1,2,4]triazolo[1,5-c]quinazolin-5-amine], the Ki came to 4.9 nM.

`Nc1nc2c3c(ccc2c2nc(CCN4CC[C@H](c5ccccc5)C4)nn12)OC(F)(F)O3` [Example 37, 2,2-difluoro-8-{2-[(3R)-3-phenylpyrrolidin-1-yl]ethyl}[1,3]dioxolo[4,5-h][1,2,4]triazolo[1,5-c]quinazolin-5-amine] showed a Ki of 20 nM.

In the case of `CC(Cc1nc2c3ccc4c(c3nc(N)n2n1)OC(F)(F)O4)N1Cc2cccnc2C1` (single isomer, unassigned) [Example 91, 8-[(2R or 2S)-2-(5,7-dihydro-6H-pyrrolo[3,4-b]pyridin-6-yl)propyl]-2,2-difluoro[1,3]dioxolo[4,5-h][1,2,4]triazolo[1,5-c]quinazolin-5-amine], the Ki was 1.2 nM.

`Nc1nc2c3c(ccc2c2nc(CCN4CC(O)(C(F)(F)F)C4)nn12)OC(F)(F)O3` [Example 20, 1-[2-(5-amino-2,2-difluoro [1,3]diozolo[4,5-h][1,2,4]triazolo[1,5-c]quinazolin-8-yl)ethyl]-3-(trifluoromethyl) azetidin-3-ol]: the Ki amounted to 12 nM.

On to `Nc1nc2c3c(ccc2c2nc([C@H]4CC[C@@H](N5CCCC(F)(F)C5)C4)nn12)OC(F)(F)O3` [Example 161, 8-[(1S,3R)-3-(3,3-difluoropiperidin-1-yl)cyclopentyl]-2,2-difluoro[1,3]dioxolo[4,5-h][1,2,4]triazolo[1,5-c]quinazolin-5-amine], for which the Ki is 32 nM.

In the case of `Nc1nc2c3c(ccc2c2nc(CCN4C[C@H]5CCCN[C@H]5C4)nn12)OC(F)(F)O3` [Example 51, 2,2-difluoro-8-{2-[(4aR,7aR)-octahydro-6H-pyrrolo[3,4-b]pyridin-6-yl]ethyl}[1,3]dioxolo [4,5-h][1,2,4]triazolo[1,5-c]quinazolin-5-amine], the Ki was 55 nM.

On to `CC(Cc1nc2c3ccc4c(c3nc(N)n2n1)OC(F)(F)O4)N1CC(F)(F)C1` (single isomer, unassigned) [Example 93, (R or S)-8-[2-(3,3-difluoroazetidin-1-yl)propyl]-2,2-difluoro[1,3] dioxolo[4,5-h][1,2,4]triazolo[1,5-c] quinazolin-5-amine], for which the Ki came out at 4.8 nM.

For the molecule `Cc1nc2c(o1)CN(CCc1nc3c4ccc5c(c4nc(N)n3n1)OC(F)(F)O5)CC2` [Example 12, 2,2-difluoro-8-[2-(2-methyl-6,7-dihydro[1,3]oxazolo[5,4-c]pyridin-5(4H)-yl)ethyl][1,3] dioxolo[4,5-h][1,2,4]triazolo [1,5-c]quinazolin-5-amine], the Ki amounted to 1.5 nM.

In general, Ki refers to the equilibrium dissociation constant of an inhibitor or competing ligand from its target. Higher therefore signals weaker binding.
